Literature values, collected in patent US20260283953A1, “FORMULATIONS OF PHOSPHOLIPID CARRIER COMPLEXES” (priority 2024, published 2026).
Read-outs that look alike come from different tables or passages of the source.

What was measured:
[1] = in vivo
[2] = natural testosterone
[3] = for testosterone levels: oral 60 mg dose

For `COc1cc(/C=C/C(=O)CC(=O)/C=C/c2ccc(O)c(OC)c2)ccc1O` [curcumin], the bioavailability [1] is given as “low bioavailability”.

For `O=C(/C=C/C=C/c1ccc2c(c1)OCO2)N1CCCCC1` [Piperine, (2E,4E)-5-(2H-1,3-Benzodioxol-5-yl)-1-(piperidin-1-yl)penta-2,4-dien-1-one], the solubility in water is listed as “dissolves poorly in water”.

In the case of `C[C@]12CC[C@H]3[C@@H](CCC4=CC(=O)CC[C@@]43C)[C@@H]1CC[C@@H]2O` [testosterone, 17β-Hydroxyandrost-4-en-3-one], the half-life [2] is listed as “under 1 hour”, the “absorption and metabolism with oral delivery” value ([3]; first pass through the intestines and liver) is listed as “well-absorbed but extensively metabolized” and the “inactivation after oral delivery” value ([3]; men, doses of less than 200 mg) is listed as “rapidly and completely inactivated”. The testosterone levels ([3]; men) was “no effect”, the testosterone levels ([3]; men with liver cirrhosis) was “High levels” and the testosterone levels ([3]; prepubertal boys and women) was “measurably increase”. For the same molecule, the circulating testosterone levels ([3]; oral, large doses such as 200 mg) was “significant increases” and the oral bioavailability ([3]; young women, single 25 mg dose) was 3.6±2.5%.
